Reference: patent US20240199587A1, “HETEROCYCLIC COMPOUNDS” (Hoffmann-La Roche Inc., priority 2021, published 2024)

biological target: T1, MAGL (Homo sapiens, UniProt Q99685); assay: 2-AG assay (MAGL inhibitory activity, hydrolysis of 2-arachidonoylglycerol to arachidonic acid followed by mass spectrometry); type: biochemical; conditions: 8 μM 2-arachidonoylglycerol, 15 min pre-incubation, 30 min incubation at RT, RapidFire MS readout
T1 sequence (Q99685 1-303): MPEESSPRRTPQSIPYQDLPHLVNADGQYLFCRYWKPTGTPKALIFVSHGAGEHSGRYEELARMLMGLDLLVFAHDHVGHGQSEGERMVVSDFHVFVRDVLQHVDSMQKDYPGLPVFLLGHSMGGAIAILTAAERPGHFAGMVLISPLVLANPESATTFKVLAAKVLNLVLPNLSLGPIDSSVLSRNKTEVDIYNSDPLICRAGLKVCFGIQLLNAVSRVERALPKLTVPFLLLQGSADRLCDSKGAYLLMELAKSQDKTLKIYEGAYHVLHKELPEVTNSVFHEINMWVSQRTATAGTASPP
Procedure, shortened: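 Human MAGL ([…] final) pre-incubated 15 min at RT with compound in 50 mM TRIS, 1 mM EDTA, 0.01% Tween-20, 2.5% DMSO; 8 μM 2-AG then added for 30 min at RT. Acetonitrile quench with d8-arachidonic acid; arachidonic acid measured by RapidFire SPE–MS/MS, activity from arachidonic acid/d8 ratio.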

| IC50 | Structure (SMILES) |
| --- | --- |
| 659 nM | CC(C)(C)c1nnc(-c2ccc(C(=O)N3CC4(CC(n5ccc(C6CC6)n5)C4)C3)cc2)o1 [Example 169, [4-(5-tert-butyl-1,3,4-oxadiazol-2-yl)phenyl]-[6-(3-cyclopropylpyrazol-1-yl)-2-azaspiro[3.3]heptan-2-yl]methanone] |
| 189 nM | CS(=O)(=O)c1cccc(CC2CC3(C2)CN(C(=O)N2CC4(CC(c5ccc(C(F)(F)F)nc5)C4)C2)C3)c1 [Example 529, [6-[(3-methylsulfonylphenyl)methyl]-2-azaspiro[3.3]heptan-2-yl]-[6-[6-(trifluoromethyl)-3-pyridyl]-2-azaspiro[3.3]heptan-2-yl]methanone] |
| 0.1 nM | O=C(N1CC2(CC(Oc3ccc(C(F)(F)F)cc3)C2)C1)N1CC2(CC(n3cnc(C4CC4)n3)C2)C1 [Example 43, [6-(3-cyclopropyl-1,2,4-triazol-1-yl)-2-azaspiro[3.3]heptan-2-yl]-[6-[4-(trifluoromethyl)phenoxy]-2-azaspiro[3.3]heptan-2-yl]methanone] |
| 4.6 nM | O=C(N1CC2(CC(n3cnc(C4CC4)n3)C2)C1)N1CC2(C1)CN(S(=O)(=O)c1ccc(F)cc1F)C2 [Example 231, [6-(3-cyclopropyl-1,2,4-triazol-1-yl)-2-azaspiro[3.3]heptan-2-yl]-[2-(2,4-difluorophenyl)sulfonyl-2,6-diazaspiro[3.3]heptan-6-yl]methanone] |
| 0.49 nM | O=C(N1CC(c2ccc(N3CCC(C(F)(F)F)C3)nc2)C1)N1CC2(CC(n3cnc(C4CC4)n3)C2)C1 (stereo in doubt) [Example 480, [6-(3-cyclopropyl-1,2,4-triazol-1-yl)-2-azaspiro[3.3]heptan-2-yl]-[3-[6-[(3S)-3-(trifluoromethyl)pyrrolidin-1-yl]-3-pyridyl]azetidin-1-yl]methanone] |
| 340 nM | Cc1cnn(C2CC3(C2)CN(C(=O)c2cnc(OCC4(C(F)(F)F)CC4)c(C)c2)C3)c1 [Example 147, [6-(4-methylpyrazol-1-yl)-2-azaspiro[3.3]heptan-2-yl]-[5-methyl-6-[[1-(trifluoromethyl)cyclopropyl]methoxy]-3-pyridyl]methanone] |
| 1.16 nM | CS(=O)(=O)c1cccc(CC2CC3(C2)CN(C(=O)N2CC4(CC(n5cnc(C(F)(F)F)n5)C4)C2)C3)c1 [Example 456, [6-[(3-methylsulfonylphenyl)methyl]-2-azaspiro[3.3]heptan-2-yl]-[6-[3-(trifluoromethyl)-1,2,4-triazol-1-yl]-2-azaspiro[3.3]heptan-2-yl]methanone] |
| 9.34 nM | O=C(N1CC(c2ccc(N3CC(C(F)(F)F)C3)nc2)C1)N1CC2(CC(n3cnc(C4(O)CC4)n3)C2)C1 [Example 496, [6-[3-(1-hydroxycyclopropyl)-1,2,4-triazol-1-yl]-2-azaspiro[3.3]heptan-2-yl]-[3-[6-[3-(trifluoromethyl)azetidin-1-yl]-3-pyridyl]azetidin-1-yl]methanone] |
| 17.3 nM | O=C(N1CC2(CC(n3cnc(C4CC4)n3)C2)C1)N1CC2(C1)CN(S(=O)(=O)NCc1ccc(F)cc1)C2 [Example 256, 6-[6-(3-cyclopropyl-1,2,4-triazol-1-yl)-2-azaspiro[3.3]heptane-2-carbonyl]-N-[(4-fluorophenyl)methyl]-2,6-diazaspiro[3.3]heptane-2-sulfonamide] |
| 1.12 nM | O=C(N1CC(c2ccc(NCC3(C(F)(F)F)CC3)nc2)C1)N1CC2(CC(n3cnc(C4(O)CC4)n3)C2)C1 [Example 372, [6-[3-(1-hydroxycyclopropyl)-1,2,4-triazol-1-yl]-2-azaspiro[3.3]heptan-2-yl]-[3-[6-[[1-(trifluoromethyl)cyclopropyl]methylamino]-3-pyridyl]azetidin-1-yl]methanone] |
| 28.9 nM | O=C(N1CC2(CC(Cc3ccc(F)cc3F)C2)C1)N1CC2(CC(c3ccc(S(=O)(=O)C(F)(F)F)cc3)C2)C1 [Example 345, [6-[(2,4-difluorophenyl)methyl]-2-azaspiro[3.3]heptan-2-yl]-[6-[4-(trifluoromethylsulfonyl)phenyl]-2-azaspiro[3.3]heptan-2-yl]methanone] |
| 162 nM | O=C(N1CC2(CC(n3cnc(C4CC4)n3)C2)C1)N1CCC(OCC2(C(F)(F)F)CC2)C(F)(F)C1 (centres unmarked) [Example 150, [6-(3-cyclopropyl-1,2,4-triazol-1-yl)-2-azaspiro[3.3]heptan-2-yl]-[3,3-difluoro-4-[[1-(trifluoromethyl)cyclopropyl]methoxy]-1-piperidyl]methanone] |
| 541 nM | O=C(N1CC(c2nnc(C3(C(F)(F)F)CC3)o2)C1)N1CC2(CC(n3cnc(C4CC4)n3)C2)C1 [Example 145, [6-(3-cyclopropyl-1,2,4-triazol-1-yl)-2-azaspiro[3.3]heptan-2-yl]-[3-[5-[1-(trifluoromethyl)cyclo-propyl]-1,3,4-oxadiazol-2-yl]azetidin-1-yl]methanone] |
| 0.2 nM | O=C(N1CC(Oc2cccc(C3CC3)c2Cl)C1)N1CC2(CC(n3cnc(C4CC4)n3)C2)C1 [Example 94, (3-(2-chloro-3-cyclopropylphenoxy)azetidin-1-yl)(6-(3-cyclopropyl-1H-1,2,4-triazol-1-yl)-2-azaspiro[3.3]heptan-2-yl)methanone] |
| 89 nM | CC(=O)Nc1ccc(S(=O)(=O)N2CC3(CN(C(=O)N4CC5(CC(n6cnc(C7CC7)n6)C5)C4)C3)C2)cc1 [Example 295, N-[4-[[6-[6-(3-cyclopropyl-1,2,4-triazol-1-yl)-2-azaspiro[3.3]heptane-2-carbonyl]-2,6-diazaspiro[3.3]heptan-2-yl]sulfonyl]phenyl]acetamide] |
| 393 nM | O=C(N1CC(c2ccc(N3CC(C(F)(F)F)C3)nc2)C1)N1CC2(CC(c3ccc(C(F)(F)F)nc3)C2)C1 [Example 523, [3-[6-[3-(trifluoromethyl)azetidin-1-yl]-3-pyridyl]azetidin-1-yl]-[6-[6-(trifluoromethyl)-3-pyridyl]-2-azaspiro[3.3]heptan-2-yl]methanone] |
| 699 nM | O=C(N1CC2(CCC(Cc3ccc(F)cn3)CC2)C1)N1CC2(CC(c3ccc(C(F)(F)F)nc3)C2)C1 [Example 516, [7-[(5-fluoro-2-pyridyl)methyl]-2-azaspiro[3.5]nonan-2-yl]-[6-[6-(trifluoromethyl)-3-pyridyl]-2-azaspiro[3.3]heptan-2-yl]methanone] |
| 0.76 nM | O=C(N1CC(C23CC(NCC4(C(F)(F)F)CC4)(C2)C3)C1)N1CC2(CC(n3cnc(C(F)(F)F)n3)C2)C1 [Example 421, [3-[3-[[1-(trifluoromethyl)cyclopropyl]methylamino]-1-bicyclo[1.1.1]pentanyl]azetidin-1-yl]-[6-[3-(trifluoromethyl)-1,2,4-triazol-1-yl]-2-azaspiro[3.3]heptan-2-yl]methanone] |
| 13.9 nM | CC1(O)CN(c2ccc(C3CN(C(=O)N4CC5(CC(n6cnc(C7CC7)n6)C5)C4)C3)cn2)C1 [Example 504, [6-(3-cyclopropyl-1,2,4-triazol-1-yl)-2-azaspiro[3.3]heptan-2-yl]-[3-[6-(3-hydroxy-3-methyl-azetidin-1-yl)-3-pyridyl]azetidin-1-yl]methanone] |
| 84 nM | O=C(N1CC2(CC(n3cnc(C4(O)CC4)n3)C2)C1)N1CC2(C1)CN(S(=O)(=O)c1cccc(OC(F)(F)F)c1)C2 [Example 497, [6-[3-(1-hydroxycyclopropyl)-1,2,4-triazol-1-yl]-2-azaspiro[3.3]heptan-2-yl]-[2-[3-(trifluoromethoxy)phenyl]sulfonyl-2,6-diazaspiro[3.3]heptan-6-yl]methanone] |
| 0.3 nM | COC(=O)C(C)(C)Cc1cccc(OC2CN(C(=O)N3CC4(CC(n5cnc(C6CC6)n5)C4)C3)C2)c1 [Example 194, methyl 3-[3-[1-[6-(3-cyclopropyl-1,2,4-triazol-1-yl)-2-azaspiro[3.3]heptane-2-carbonyl]azetidin-3-yl]oxyphenyl]-2,2-dimethyl-propanoate] |
| 3 nM | O=C(N1CC2(CC(n3cnc(C4CC4)n3)C2)C1)N1CC2(C1)CN(S(=O)(=O)c1ccccc1C(F)(F)F)C2 [Example 223, [6-(3-cyclopropyl-1,2,4-triazol-1-yl)-2-azaspiro[3.3]heptan-2-yl]-[2-[2-(trifluoromethyl)phenyl]sulfonyl-2,6-diazaspiro[3.3]heptan-6-yl]methanone] |
| 2.6 nM | O=C(N1CC2(CC(Oc3nccc(C(F)(F)F)n3)C2)C1)N1CC2(CC(n3cnc(C4CC4)n3)C2)C1 [Example 58, [6-(3-cyclopropyl-1,2,4-triazol-1-yl)-2-azaspiro[3.3]heptan-2-yl]-[6-[4-(trifluoromethyl)pyrimidin-2-yl]oxy-2-azaspiro[3.3]heptan-2-yl]methanone] |
| 0.4 nM | O=C(N1CC2(CC(NS(=O)(=O)c3cccc(C(F)(F)F)c3)C2)C1)N1CC2(CC(n3cnc(C4CC4)n3)C2)C1 [Example 195, N-[2-[6-(3-cyclopropyl-1,2,4-triazol-1-yl)-2-azaspiro[3.3]heptane-2-carbonyl]-2-azaspiro[3.3]heptan-6-yl]-3-(trifluoromethyl)benzen esulfonamide] |
| 8.2 nM | O=C(N1CC(OCc2cc(C(F)(F)F)ccc2F)C1)N1CC2(CC(n3cnc(C4CC4)n3)C2)C1 [Example 73, (6-(3-cyclopropyl-1H-1,2,4-triazol-1-yl)-2-azaspiro[3.3]heptan-2-yl)(3-((2-fluoro-5-(trifluoromethyl)benzyl)oxy)azetidin-1-yl)methanone] |
| 0.74 nM | O=C(N1CC(c2ccc(NCC3(C(F)(F)F)CC3)cn2)C1)N1CC2(CC(n3cnc(C4CC4)n3)C2)C1 [Example 478, [6-(3-cyclopropyl-1,2,4-triazol-1-yl)-2-azaspiro[3.3]heptan-2-yl]-[3-[5-[[1-(trifluoromethyl)cyclopropyl]methylamino]-2-pyridyl]azetidin-1-yl]methanone] |
